± gives the expanded uncertainty stated by the source.
Assays:
[1] = 101.33 kPa, Liquid; for speed of sound: Sing-around technique in a fixed-path interferometer; for mass density: Vibrating tube method; for viscosity: Falling or rolling sphere viscometry
[2] = molar heat capacity at constant pressure; conditions: 101.33 kPa, Liquid, DSC

CCCCn1cc[n+](C(CC)CC)c1.O=S(=O)([N-]S(=O)(=O)C(F)(F)F)C(F)(F)F
Conditions	mass density, [1] [kg/m3]	molar heat capacity at constant pressure, [2] [J/K/mol]	speed of sound, [1] [m/s]	viscosity, [1] [mPa·s]
287.15 K	1329.4 ± 9.6	–	1238.8 ± 5	–
289.15 K	1327.6 ± 9.6	–	1233.8 ± 5	–
291.15 K	1325.8 ± 9.6	–	1228.9 ± 5	–
293.15 K	1324 ± 9.6	–	1224.1 ± 5	159.5 ± 9.4
294.15 K	–	692.9 ± 27	–	148.8 ± 8.6
295.15 K	1322.2 ± 9.5	694.28 ± 27	1219.3 ± 5	–
296.15 K	–	695.14 ± 27	–	–
297.15 K	1320.4 ± 9.5	695.85 ± 27	1214.5 ± 5	–
298.15 K	–	696.61 ± 27	–	118.2 ± 6.4
299.15 K	1318.6 ± 9.5	697.52 ± 27	1209.8 ± 5	–
300.15 K	–	698.18 ± 27	–	–
301.15 K	1316.8 ± 9.5	698.85 ± 27	1205.1 ± 5	–
302.15 K	–	699.65 ± 27	–	–
303.15 K	1315 ± 9.4	700.37 ± 27	1200.4 ± 5	89.55 ± 4.5
304.15 K	–	701.22 ± 27	–	–
305.15 K	1313.2 ± 9.4	701.89 ± 27	1195.8 ± 5	–
306.15 K	–	702.56 ± 27	–	–
307.15 K	1311.5 ± 9.4	703.46 ± 27	1191.2 ± 5	–
308.15 K	–	704.22 ± 27	–	–
309.15 K	1309.7 ± 9.4	704.93 ± 27	1186.7 ± 5	–
310.15 K	–	705.84 ± 27	–	–
311.15 K	1307.9 ± 9.3	706.6 ± 27	1182.1 ± 5	–
312.15 K	–	707.21 ± 27	–	–
313.15 K	1306.2 ± 9.3	707.88 ± 27	1177.6 ± 5	54.83 ± 2.6
314.15 K	–	708.69 ± 27	–	–
315.15 K	1304.4 ± 9.3	709.45 ± 27	1173.1 ± 5	–
316.15 K	–	710.35 ± 28	–	–
317.15 K	1302.6 ± 9.3	711.16 ± 28	1168.6 ± 5	–
318.15 K	–	711.87 ± 28	–	–
319.15 K	1300.9 ± 9.2	712.97 ± 28	1164.2 ± 5	–
320.15 K	–	713.78 ± 28	–	–
321.15 K	1299.1 ± 9.2	714.58 ± 28	1159.8 ± 5	–
322.15 K	–	715.35 ± 28	–	–
323.15 K	1297.4 ± 9.2	716.3 ± 28	1155.4 ± 5	35.98 ± 1.7
324.15 K	–	717.1 ± 28	–	–
325.15 K	1295.7 ± 9.2	718.2 ± 28	1151 ± 5	–
326.15 K	–	718.67 ± 28	–	–
327.15 K	1293.9 ± 9.1	719.58 ± 28	1146.6 ± 5	–
328.15 K	–	720.2 ± 28	–	–
329.15 K	1292.2 ± 9.1	721.15 ± 28	1142.3 ± 5	–
330.15 K	–	721.72 ± 28	–	–
331.15 K	1290.5 ± 9.1	722.48 ± 28	1137.9 ± 5	–
332.15 K	–	723.24 ± 28	–	–
333.15 K	1288.7 ± 9.1	723.9 ± 28	1133.6 ± 5	25.07 ± 1.2
334.15 K	–	724.81 ± 28	–	–
335.15 K	1287 ± 9	725.43 ± 28	1129.3 ± 5	–
336.15 K	–	726.23 ± 28	–	–
337.15 K	1285.3 ± 9	726.9 ± 28	1125 ± 5	–
338.15 K	–	727.47 ± 28	–	–
339.15 K	1283.6 ± 9	728.09 ± 28	1120.8 ± 5	–
340.15 K	–	729.04 ± 28	–	–
341.15 K	1281.8 ± 9	729.42 ± 28	1116.6 ± 5	–
342.15 K	–	730.13 ± 28	–	–
343.15 K	1280.1 ± 8.9	731.13 ± 28	1112.4 ± 5	18.26 ± 0.87
344.15 K	–	731.94 ± 28	–	–
345.15 K	–	732.61 ± 28	–	–
346.15 K	–	733.37 ± 28	–	–
347.15 K	–	733.89 ± 28	–	–
348.15 K	–	734.79 ± 28	–	–
353.15 K	–	–	–	13.84 ± 0.66

CCCCn1cc[n+](CCC(C)C)c1.O=S(=O)([N-]S(=O)(=O)C(F)(F)F)C(F)(F)F
Conditions	mass density, [1] [kg/m3]	molar heat capacity at constant pressure, [2] [J/K/mol]	speed of sound, [1] [m/s]
287.15 K	1328.1 ± 9.6	–	1243.8 ± 5
289.15 K	1326.3 ± 9.6	–	1238.9 ± 5
291.15 K	1324.4 ± 9.6	–	1234.1 ± 5
293.15 K	1322.6 ± 9.5	681.82 ± 26	1229.3 ± 5
294.15 K	–	682.92 ± 26	–
295.15 K	1320.8 ± 9.5	683.63 ± 26	1224.5 ± 5
296.15 K	–	684.34 ± 26	–
297.15 K	1319.1 ± 9.5	685.11 ± 27	1219.8 ± 5
298.15 K	–	685.77 ± 27	–
299.15 K	1317.3 ± 9.5	686.48 ± 27	1215.1 ± 5
300.15 K	–	687.15 ± 27	–
301.15 K	1315.5 ± 9.4	687.82 ± 27	1210.4 ± 5
302.15 K	–	688.48 ± 27	–
303.15 K	1313.7 ± 9.4	689.15 ± 27	1205.8 ± 5
304.15 K	–	689.91 ± 27	–
305.15 K	1311.9 ± 9.4	690.67 ± 27	1201.2 ± 5
306.15 K	–	691.33 ± 27	–
307.15 K	1310.2 ± 9.4	692.19 ± 27	1196.6 ± 5
308.15 K	–	692.95 ± 27	–
309.15 K	1308.4 ± 9.3	693.62 ± 27	1192 ± 5
310.15 K	–	694.42 ± 27	–
311.15 K	1306.6 ± 9.3	695.14 ± 27	1187.5 ± 5
312.15 K	–	695.9 ± 27	–
313.15 K	1304.9 ± 9.3	696.66 ± 27	1183 ± 5
314.15 K	–	697.47 ± 27	–
315.15 K	1303.1 ± 9.3	698.23 ± 27	1178.4 ± 5
316.15 K	–	698.94 ± 27	–
317.15 K	1301.3 ± 9.2	699.65 ± 27	1173.9 ± 5
318.15 K	–	700.56 ± 27	–
319.15 K	1299.6 ± 9.2	701.27 ± 27	1169.5 ± 5
320.15 K	–	702.08 ± 27	–
321.15 K	1297.8 ± 9.2	702.84 ± 27	1165 ± 5
322.15 K	–	703.7 ± 27	–
323.15 K	1296.1 ± 9.2	704.55 ± 27	1160.6 ± 5
324.15 K	–	705.36 ± 27	–
325.15 K	1294.3 ± 9.1	706.26 ± 27	1156.2 ± 5
326.15 K	–	707.07 ± 27	–
327.15 K	1292.6 ± 9.1	707.93 ± 27	1151.8 ± 5
328.15 K	–	708.78 ± 27	–
329.15 K	1290.8 ± 9.1	709.59 ± 27	1147.4 ± 5
330.15 K	–	710.4 ± 28	–
331.15 K	1289.1 ± 9.1	711.16 ± 28	1143 ± 5
332.15 K	–	711.97 ± 28	–
333.15 K	1287.4 ± 9	712.68 ± 28	1138.7 ± 5
334.15 K	–	713.49 ± 28	–
335.15 K	1285.6 ± 9	714.25 ± 28	1134.3 ± 5
336.15 K	–	714.92 ± 28	–
337.15 K	1283.9 ± 9	715.82 ± 28	1130 ± 5
338.15 K	–	716.58 ± 28	–
339.15 K	1282.2 ± 9	717.34 ± 28	1125.7 ± 5
340.15 K	–	718.15 ± 28	–
341.15 K	1280.4 ± 8.9	718.86 ± 28	1121.5 ± 5
342.15 K	–	719.53 ± 28	–
343.15 K	1278.7 ± 8.9	720.2 ± 28	1117.3 ± 5
344.15 K	–	720.81 ± 28	–
345.15 K	–	721.43 ± 28	–
346.15 K	–	722.24 ± 28	–
347.15 K	–	723.05 ± 28	–
348.15 K	–	724.28 ± 28	–

— the NIST ThermoML archive (doi:10.1016/j.fluid.2017.03.021)
